Values of other authors, collected in patent US7148007B2, “Method for evaluating immunotoxicity of test substance” (priority 2001, dated 2006).

Conditions: toxicity level based on that of 2,3,7,8-TCDD being 1; WHO 1998 TEF scheme

Row | SMILES | WHO-TEF
1 | Clc1cc2c(cc1Cl)Oc1c(Cl)c(Cl)c(Cl)c(Cl)c1O2 [1,2,3,4,7,8-HxCDD, 1,2,3,4,7,8-Hexachlorodibenzo-p-dioxin] | 0.1
2 | Clc1cc2c(c(Cl)c1Cl)Oc1cc(Cl)c(Cl)c(Cl)c1O2 [1,2,3,6,7,8-HxCDD] | 0.1
3 | Clc1cc2c(c(Cl)c1Cl)Oc1c(cc(Cl)c(Cl)c1Cl)O2 [1,2,3,7,8,9-HxCDD, 1,2,3,7,8,9-Hexachlorodibenzo-p-dioxin] | 0.1
4 | Clc1cc2c(cc1Cl)Oc1c(cc(Cl)c(Cl)c1Cl)O2 [1,2,3,7,8-PeCDD, 1,2,3,7,8-Pentachlorodibnzo-p-dioxin] | 1
5 | Clc1cc2c(cc1Cl)Oc1cc(Cl)c(Cl)cc1O2 [2,3,7,8-TCDD, 2,3,7,8-Tetraorodibenzo-p-dioxin] | 1
6 | Clc1c(Cl)c(Cl)c2c(c1Cl)Oc1c(Cl)c(Cl)c(Cl)c(Cl)c1O2 [OCDD, 1,2,3,4,5,6,7,8,9-Octachlorodibenzo-p-dioxin] | 0.0001
